Earlier results in patent US20060172368A1, “CGT1 as an antifungal target” (priority 2002, published 2006).

Settings: mice, DOX 2 mg/ml in 5% sucrose as drinking water, approx. 5 ml per day

C[C@H]1c2cccc(O)c2C(=O)C2=C(O)[C@]3(O)C(=O)C(C(N)=O)=C(O)[C@@H](N(C)C)[C@@H]3[C@@H](O)[C@@H]21 [doxycycline]
concentration of DOX in serum: more than 2 mg/ml of serum
